Measured values: patent publication US12194021B2, “Modified herbal compositions for neuromodulation” (University of Southern California, priority 2021, dated 2025)
Marks after values point to notes of the source that are not given here.

Legend:
[1] = tested on: TG-mice; assay: Novel context recognition (NCR); assay type: in vivo; settings: 1 mg/kg oral, 3 months, untreated TG 49.2±2.6%
Method: Novel context recognition (NCR): Day 1-3 was Habituation (once/day). Two contexts (containers) A and B with similar field area were very different in shape. Context A was a rectangular, Context B was a circular container. The containers were open at the top with bedding to minimize stress and with video camera on top to record animal behavior. Each animal was placed in Context A without toys for 5 min, then back to home cage for 30 min. Then the animal was placed in Context B without toys for 5 min.
Day 4 was for Familiarization: Two different sets of toys were used as the familiar objects referred to as FO1 and FO2 respectively. […]
Day 5 (24 h from familiarization): Retention Trials was performed to determine the memory retention of each animal for familiarized objects. […] The test was videotaped and analyzed offline. The time spent exploring the familiar object (FO1) and exchanged object (FO2) were calculated where exploration equals touching the object with nose or paws or sniffing within 1.5 cm of the object. […]
Mice were divided into four groups: (1) C57BL/6 wt male mice were treated with oral administration of 2% sucrose; (2) C57B1/6 wt male mice with oral administration of 1 mg/kg D-P in 2% sucrose; (3) TG-mice with oral administration of 2% sucrose; and (4) TG-mice with 1 mg/kg D-P in 2% sucrose. […] Next, we evaluated NCR (FIG. 3C). The RI was calculated.

[2] = tested on: GABAARs; assay: Whole-cell voltage-clamped recordings from hippocampal DGCs in slices (Itonic, mIPSCs); assay type: cell-based, rats; settings: for GABAergic Itonic: basal Itonic 20 pA
Description: 2) Whole-Cell Patch-Clamp Recordings from Brain Slices. Transverse slices (400 lm) of dorsal hippocampus were obtained from wt and TG-SwDI mice (male, 20 months old) using a vibratome (VT 100; Technical Products International). Slices were perfused continuously with artificial CSF (ACSF) composed of the following (in mM): 125 NaCl, 2.5 KCl, 2 CaCl2, 2 MgCl2, 26 NaHCO3, and 10 D-glucose. The ACSF was bubbled continuously with 95% O2/5% CO2 to ensure adequate oxygenation of slices and a pH of 7.4 and kept at 34±0.5° C. for perfusion. TTX (0.5 μM), APV (40 μM), CNQX (10 μM), and CGP54626 (1 μM, GABABR antagonist) were added to ACSF to pharmacologically isolate GABAAR-mediated mIPSCs. Patch electrodes were filled with internal solution containing the following (in mM): 137 CsCl, 2 MgCl2, 1 CaCl2, 11 EGTA, 10 HEPES, and 3 ATP, pH adjusted to 7.30 with CsOH. Recordings targeted dentate gyms granule cells (DGCs) of hippocampal slices. Voltage-clamp whole-cell recording was performed using a patch clamp amplifier 3) EPM: All animals were tested anxiety levels on EPM. Animals were placed on the central area of the maze, tested for 5 min and video recorded. The following measures were scored: number of entries into open arms, closed arms, or center platform and time spent in each of these areas. Data were reported as % of number of entries in arms, % of time spent in different entries, and number of total entries.
To evaluate whether DHM-Piperidine Complex (D-P) can still potentiate GABAARs, whole-cell voltage-clamped recordings from hippocampal DGCs in slices were performed to test D-P and compared with DHM effects on GABAergic tonic current (Itonic) and miniature inhibitory postsynaptic currents (mIPSCs). […] Compared with DHM enhancing GABAergic Itonic from 20 pA (basal Itonic)→28 pA→31 pA→52 pA→55 pA, D-P enhancing GABAergic Itonic from 20 pA (basal Itonic)→35 pA→42 pA →65 pA→70 pA (Table 1).

[3] = Six-month long-term toxicity evaluation (metabolic rate); assay type: in vivo; settings: male Sprague Dawley rats, gavage 1, 10 and 500 mg/kg daily, six months
Method: To evaluate D-P's safety, we tested dosages of 1, 10, and 500 mg/kg (500 time high concentration) of D-P in rats. Sprague Dawley rats, male, body weight starting at 175±5 g, were used in this study. Control group rats were gavaged SUC 20 ml/kg, and D-P group rats were gavaged 1, 10, and 500 mg/kg D-P every day for six months.

piperidin-1-ium (2R,3R)-2-(3,4-dihydroxy-5-oxidophenyl)-3,5-dihydroxy-4-oxochroman-7-olate [D-P]
Recognition Index (RI), novel context [1]: reversed the RI in TG-mice
Itonic, percent in brackets (increase over basal) ([2]; 0.1 μM): (75%)*
mIPSCs (area potentiated) ([2]; 0.1 μM): 16.7%*
GABAergic Itonic ([2]; 0.1 μM): 35 pA
Itonic, percent in brackets (increase over basal) ([2]; 0.3 μM): (110%)*
mIPSCs (area potentiated) ([2]; 0.3 μM): 23.3%*
GABAergic Itonic ([2]; 0.3 μM): 42 pA
Itonic, percent in brackets (increase over basal) ([2]; 1 μM): (225%)*
mIPSCs (area potentiated) ([2]; 1 μM): 100.0%*
GABAergic Itonic ([2]; 1 μM): 65 pA
Itonic, percent in brackets (increase over basal) ([2]; 10 μM): (250%)*
mIPSCs (area potentiated) ([2]; 10 μM): 133.3%*
GABAergic Itonic ([2]; 10 μM): 70 pA
metabolic rate [3]: did not alter the metabolic rate
